Reference: PubChem BioAssay (NCI)
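Compound exposure: 48 hours, 5 concentrations, 96-well plates. The concentration for full growth arrest is given as TGI.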

tested on: LOX IMVI melanoma; test: NCI tumour cell line growth inhibition, 48 h

Question: With `CCCCN(CC)C(=O)C1=C(C)NC(C)=C(C(=O)N(CC)CCCC)C1` as the molecule, how does the TGI read?
Answer: > 100 µM

Question: How did the TGI turn out when `CCOC(=O)c1csc(NC(=O)CN2CCN(c3ccccc3)CC2)n1` was run?
Answer: > 100 µM

Question: With `COc1cc2c(cc1OCCCCCN1C(=O)c3cccc4cccc(c34)C1=O)N=C[C@@H]1CCCN1C2=O` as the molecule, how does the TGI read?
Answer: 0.785 µM

Question: With `[N-]=[N+]=CC(=O)OC1CCOCC1` as the molecule, how does the TGI read?
Answer: > 100 µM

Question: Which TGI does the source give for `CS(=O)(=O)OCOS(C)(=O)=O` here?
Answer: > 100 µM

tested on: BT-549 breast; test: NCI tumour cell line growth inhibition, 48 h

Question: For `CCCCN(CC)C(=O)C1=C(C)NC(C)=C(C(=O)N(CC)CCCC)C1`, which TGI is on record?
Answer: > 100 µM

Question: Which TGI does the source give for `COc1cc2c(cc1OCCCCCN1C(=O)c3cccc4cccc(c34)C1=O)N=C[C@@H]1CCCN1C2=O` here?
Answer: 0.855 µM

Question: `[N-]=[N+]=CC(=O)OC1CCOCC1` was tested. Which TGI did it give?
Answer: > 100 µM

Question: How did the TGI turn out when `CS(=O)(=O)OCOS(C)(=O)=O` was run?
Answer: > 100 µM

tested on: MDA-MB-435; test: NCI tumour cell line growth inhibition, 48 h

Question: How did the TGI turn out when `CCCCN(CC)C(=O)C1=C(C)NC(C)=C(C(=O)N(CC)CCCC)C1` was run?
Answer: > 100 µM

Question: `CCOC(=O)c1csc(NC(=O)CN2CCN(c3ccccc3)CC2)n1` was tested. Which TGI did it give?
Answer: > 100 µM

Question: `COc1cc2c(cc1OCCCCCN1C(=O)c3cccc4cccc(c34)C1=O)N=C[C@@H]1CCCN1C2=O` was tested. Which TGI did it give?
Answer: 0.306 µM

Question: `[N-]=[N+]=CC(=O)OC1CCOCC1` was tested. Which TGI did it give?
Answer: > 100 µM

Question: For `CS(=O)(=O)OCOS(C)(=O)=O`, which TGI is on record?
Answer: > 100 µM

tested on: HOP-62 NSCLC; test: NCI tumour cell line growth inhibition, 48 h

Question: `CCCCN(CC)C(=O)C1=C(C)NC(C)=C(C(=O)N(CC)CCCC)C1` was tested. Which TGI did it give?
Answer: > 100 µM

Question: For `CCOC(=O)c1csc(NC(=O)CN2CCN(c3ccccc3)CC2)n1`, which TGI is on record?
Answer: > 100 µM

Question: Which TGI does the source give for `[N-]=[N+]=CC(=O)OC1CCOCC1` here?
Answer: > 100 µM

Question: How did the TGI turn out when `CS(=O)(=O)OCOS(C)(=O)=O` was run?
Answer: > 100 µM

tested on: SF-295 CNS; test: NCI tumour cell line growth inhibition, 48 h

Question: For `CCCCN(CC)C(=O)C1=C(C)NC(C)=C(C(=O)N(CC)CCCC)C1`, which TGI is on record?
Answer: > 100 µM

Question: `CCOC(=O)c1csc(NC(=O)CN2CCN(c3ccccc3)CC2)n1` was tested. Which TGI did it give?
Answer: > 100 µM

Question: Which TGI does the source give for `COc1cc2c(cc1OCCCCCN1C(=O)c3cccc4cccc(c34)C1=O)N=C[C@@H]1CCCN1C2=O` here?
Answer: 4.66 µM

Question: `[N-]=[N+]=CC(=O)OC1CCOCC1` was tested. Which TGI did it give?
Answer: > 100 µM

Question: With `CS(=O)(=O)OCOS(C)(=O)=O` as the molecule, how does the TGI read?
Answer: > 100 µM

tested on: EKVX NSCLC; test: NCI tumour cell line growth inhibition, 48 h

Question: `CCCCN(CC)C(=O)C1=C(C)NC(C)=C(C(=O)N(CC)CCCC)C1` was tested. Which TGI did it give?
Answer: > 100 µM

Question: How did the TGI turn out when `CCOC(=O)c1csc(NC(=O)CN2CCN(c3ccccc3)CC2)n1` was run?
Answer: > 100 µM

Question: `COc1cc2c(cc1OCCCCCN1C(=O)c3cccc4cccc(c34)C1=O)N=C[C@@H]1CCCN1C2=O` was tested. Which TGI did it give?
Answer: 1.85 µM

Question: `[N-]=[N+]=CC(=O)OC1CCOCC1` was tested. Which TGI did it give?
Answer: > 100 µM

Question: For `CS(=O)(=O)OCOS(C)(=O)=O`, which TGI is on record?
Answer: > 100 µM

tested on: K-562 leukemia; test: NCI tumour cell line growth inhibition, 48 h

Question: With `CCOC(=O)c1csc(NC(=O)CN2CCN(c3ccccc3)CC2)n1` as the molecule, how does the TGI read?
Answer: > 100 µM

Question: How did the TGI turn out when `COc1cc2c(cc1OCCCCCN1C(=O)c3cccc4cccc(c34)C1=O)N=C[C@@H]1CCCN1C2=O` was run?
Answer: > 100 µM

Question: How did the TGI turn out when `[N-]=[N+]=CC(=O)OC1CCOCC1` was run?
Answer: > 100 µM

Question: For `CS(=O)(=O)OCOS(C)(=O)=O`, which TGI is on record?
Answer: > 100 µM

tested on: MDA-MB-231 breast; test: NCI tumour cell line growth inhibition, 48 h

Question: With `CCCCN(CC)C(=O)C1=C(C)NC(C)=C(C(=O)N(CC)CCCC)C1` as the molecule, how does the TGI read?
Answer: > 100 µM

Question: How did the TGI turn out when `CCOC(=O)c1csc(NC(=O)CN2CCN(c3ccccc3)CC2)n1` was run?
Answer: > 100 µM

Question: `COc1cc2c(cc1OCCCCCN1C(=O)c3cccc4cccc(c34)C1=O)N=C[C@@H]1CCCN1C2=O` was tested. Which TGI did it give?
Answer: > 100 µM

Question: `[N-]=[N+]=CC(=O)OC1CCOCC1` was tested. Which TGI did it give?
Answer: > 100 µM

Question: For `CS(=O)(=O)OCOS(C)(=O)=O`, which TGI is on record?
Answer: > 100 µM

tested on: NCI-H460 lung; test: NCI tumour cell line growth inhibition, 48 h

Question: Which TGI does the source give for `CCCCN(CC)C(=O)C1=C(C)NC(C)=C(C(=O)N(CC)CCCC)C1` here?
Answer: > 100 µM

Question: Which TGI does the source give for `CCOC(=O)c1csc(NC(=O)CN2CCN(c3ccccc3)CC2)n1` here?
Answer: > 100 µM

Question: Which TGI does the source give for `COc1cc2c(cc1OCCCCCN1C(=O)c3cccc4cccc(c34)C1=O)N=C[C@@H]1CCCN1C2=O` here?
Answer: > 100 µM

Question: `[N-]=[N+]=CC(=O)OC1CCOCC1` was tested. Which TGI did it give?
Answer: > 100 µM

Question: `CS(=O)(=O)OCOS(C)(=O)=O` was tested. Which TGI did it give?
Answer: > 100 µM

tested on: OVCAR-3 ovarian; test: NCI tumour cell line growth inhibition, 48 h

Question: For `CCCCN(CC)C(=O)C1=C(C)NC(C)=C(C(=O)N(CC)CCCC)C1`, which TGI is on record?
Answer: > 100 µM

Question: For `CCOC(=O)c1csc(NC(=O)CN2CCN(c3ccccc3)CC2)n1`, which TGI is on record?
Answer: > 100 µM

Question: How did the TGI turn out when `COc1cc2c(cc1OCCCCCN1C(=O)c3cccc4cccc(c34)C1=O)N=C[C@@H]1CCCN1C2=O` was run?
Answer: 0.524 µM

Question: Which TGI does the source give for `[N-]=[N+]=CC(=O)OC1CCOCC1` here?
Answer: > 100 µM

Question: Which TGI does the source give for `CS(=O)(=O)OCOS(C)(=O)=O` here?
Answer: > 100 µM

tested on: MALME-3M melanoma; test: NCI tumour cell line growth inhibition, 48 h

Question: Which TGI does the source give for `CCOC(=O)c1csc(NC(=O)CN2CCN(c3ccccc3)CC2)n1` here?
Answer: > 100 µM

Question: `COc1cc2c(cc1OCCCCCN1C(=O)c3cccc4cccc(c34)C1=O)N=C[C@@H]1CCCN1C2=O` was tested. Which TGI did it give?
Answer: 0.364 µM

Question: With `[N-]=[N+]=CC(=O)OC1CCOCC1` as the molecule, how does the TGI read?
Answer: > 100 µM

tested on: RPMI-8226 leukemia; test: NCI tumour cell line growth inhibition, 48 h

Question: For `CCOC(=O)c1csc(NC(=O)CN2CCN(c3ccccc3)CC2)n1`, which TGI is on record?
Answer: > 100 µM

Question: `COc1cc2c(cc1OCCCCCN1C(=O)c3cccc4cccc(c34)C1=O)N=C[C@@H]1CCCN1C2=O` was tested. Which TGI did it give?
Answer: > 26.2 µM

Question: How did the TGI turn out when `[N-]=[N+]=CC(=O)OC1CCOCC1` was run?
Answer: > 100 µM

Question: `CS(=O)(=O)OCOS(C)(=O)=O` was tested. Which TGI did it give?
Answer: > 100 µM

tested on: SK-MEL-28 melanoma; test: NCI tumour cell line growth inhibition, 48 h

Question: `CCCCN(CC)C(=O)C1=C(C)NC(C)=C(C(=O)N(CC)CCCC)C1` was tested. Which TGI did it give?
Answer: > 100 µM

Question: `CCOC(=O)c1csc(NC(=O)CN2CCN(c3ccccc3)CC2)n1` was tested. Which TGI did it give?
Answer: > 100 µM

Question: `COc1cc2c(cc1OCCCCCN1C(=O)c3cccc4cccc(c34)C1=O)N=C[C@@H]1CCCN1C2=O` was tested. Which TGI did it give?
Answer: 0.966 µM

Question: How did the TGI turn out when `[N-]=[N+]=CC(=O)OC1CCOCC1` was run?
Answer: > 100 µM

Question: With `CS(=O)(=O)OCOS(C)(=O)=O` as the molecule, how does the TGI read?
Answer: > 100 µM

tested on: T-47D breast; test: NCI tumour cell line growth inhibition, 48 h

Question: Which TGI does the source give for `CCCCN(CC)C(=O)C1=C(C)NC(C)=C(C(=O)N(CC)CCCC)C1` here?
Answer: > 100 µM

Question: Which TGI does the source give for `CCOC(=O)c1csc(NC(=O)CN2CCN(c3ccccc3)CC2)n1` here?
Answer: > 100 µM

Question: `COc1cc2c(cc1OCCCCCN1C(=O)c3cccc4cccc(c34)C1=O)N=C[C@@H]1CCCN1C2=O` was tested. Which TGI did it give?
Answer: 8.25 µM

tested on: ACHN renal; test: NCI tumour cell line growth inhibition, 48 h

Question: For `CCCCN(CC)C(=O)C1=C(C)NC(C)=C(C(=O)N(CC)CCCC)C1`, which TGI is on record?
Answer: > 100 µM
